# Laboratory results published in PMC9405727, “A Setmelanotide-like Effect at MC4R Is Achieved by MC4R Dimer Separation” (Biomolecules, 2022).
# Entries after “also recorded” stand apart in the source; their conditions may differ.
# B1: CB1R: cannabinoid receptor type 1, negative control (protein)
# chain: MKSILDGLADTTFRTITTDLLYVGSNDIQYEDIKGDMASKLGYFPQKFPLTSFRGSPFQEKMTAGDNPQLVPADQVNITEFYNKSLSSFKENEENIQCGENFMDIECFMVLNPSQQLAIAVLSLTLGTFTVLENLLVLCVILHSRSLRCRPSYHFIGSLAVADLLGSVIFVYSFIDFHVFHRKDSRNVFLFKLGGVTASFTASVGSLFLTAIDRYISIHRPLAYKRIVTRPKAVVAFCLMWTIAIVIAVLPLLGWNCEKLQSVCSDIFPHIDETYLMFWIGVTSVLLLFIVYAYMYILWKAHSHAVRMIQRGTQKSIIIHTSEDGKVQVTRPDQARMDIRLAKTLVLILVVLIICWGPLLAIMVYDVFGKMNKLIKTVFAFCSMLCLLNSTVNPIIYALRSKDLRHAFRSMFPSCEGTAQPLDNSMGDSDCLHKHANNAASVHRAAESCIKSTVKIAKVTMSVSTDTSAEAL
# modifications: left off: NanoLuc, C-terminal, kept | HaloTag, C-terminal, kept
# Assays:
# HEK293 cells = experiment: GloSensor cAMP accumulation, isoproterenol internal control in transfected cells; format: cell-based, human
# Description: Gs signaling was measured using cAMP assay GloSensor™, enabling real-time measurements of cAMP accumulation. HEK293 cells were transfected with either MC4R-WT or chimeric receptors. […] Non-PTX-treated cells received 10 µL MEM without supplements (Gibco Minimum Essential Media, Waltham, MA, USA) per well at the same time point. Bioluminescence was quantified using a Berthold Microplate Reader (Mithras LB940, Berthold Technologies GmbH and Co., Bad Wildbad, Germany). […] Cells stimulated with 1 µM isoproterenol served as an internal control. GloSensor™ results were expressed as relative luminescence units (RLU). The total cAMP formation was assessed in the time–response curve by calculating the area under the curve (AUC).
# [1] = system: MC4R/CB1R chimeric receptors; details: COS-7 cells; cited from earlier work
# Description: Results were based on cAMP accumulation assays in COS-7 cells. […] Experiments were performed using GloSensor^TM assay enabling dynamic live cell measurement of cAMP increase. In order to compare the results of this study with results previously achieved in COS-7 cells, we used the same ...
# [2] = system: receptor-receptor interaction (WT, Chim 7, H158R, CB1R); experiment: Donor saturation assay (DSA, NanoBRET), specificity of receptor-receptor interaction; format: cell-based, human; details: for Bmax: DSA; for specificity of homodimer interaction: donor saturation assay, HEK293
# Description: The interaction between MC4R-WT, CB1R, and the chimeric receptors was determined using NanoBRET™ (Promega, Mannheim, Germany). The receptors were either C-terminally tagged with HaloTag (HT) as an energy acceptor or C-terminally fused with NanoLuc (NL) as an energy donor. Then, 20 h after transfection, cells were detached from the wells and centrifuged at 130× g for 5 min and the pellet was resuspended in Opti-MEM (Gibco) without phenol red, supplemented with 4% FBS (Gibco). […] The cells were then reseeded into white opaque 96-well plates (Corning, Costar) and incubated for 4–6 h at 37° and 5% CO2. […] The BRET Ratio was calculated by dividing acceptor emission by donor emission. In order to correct for background bleedthrough, the background ratio (no acceptor DMSO control) was subtracted, and the unit was changed into miliBRET (mBU).
# Supplements S1: Donor Saturation Assays (DSA) investigating the specificity of receptor-receptor interaction of WT, Chim7 and H158R.
# Figure S1: Donor Saturation Assays (DSA) investigating the specificity of receptor-receptor interaction of WT, Chim7 and H158R. HEK293 cells were transfected with increasing amounts of acceptor while the amount of donor was held constant. A receptor interaction is called specific, if a saturation level (Bmax) can be achieved. This is represented by a […]
# hyperbolic curve. […] WT-MC4R […]
# served as positive control, CB1R was included as negative control as it is known not to […]
# receptor interaction, represented by the black hyperbolic curve. The negative controls depict flat behavior. (B) Homodimerization of Chim 7 is depicted next to WT-MC4R homodimer formation. Interaction of Chim7 NL with CB1R HT served as negative control.
# (C) Homodimerization of H158R is depicted next to positive and negative control. […] Data […]
# represent three independent experiments each performed in triplicates. Values represent
# [3] = system: receptor homodimer (MC4R-WT, CB1R, Chim 1-7, H158R); experiment: NanoBRET receptor homodimerization (BRET ratio, ΔBRET); details: for Relative Dimerization Compared to WT: NanoBRET data from Figure 2 (ΔBRET = chimera minus MC4R-WT), HEK293, no agonist, three independent experiments in triplicate; for homodimerization compared to MC4R-WT: NanoBRET, HEK293, n = 3 in triplicate; for nanoBRET rations, mean: difference to WT+WT, mean of the replicates
# Description: Cells were maintained in minimal essential medium (MEM, Gibco, Waltham, MA, USA) supplemented with 5% fetal bovine serum (FBS, Gibco, Waltham, MA, USA) and NEAA incubated at 37 °C in humidified air containing 5% CO2. For the BRET assays, 4 × 10^5 HEK293 cells per well were seeded in 6-well plates for transfection.
# For BRET assays, HEK293 cells were transfected 4–6 h after seeding. Transfection was performed using 8 µL FuGene HD (Promega, Mannheim, Germany) and 1.4 µg DNA in Opti-MEM (Gibco, Waltham, MA, USA). […] In addition, 200 ng Carrier DNA (pGEM3Z) was added.
# For graphical depiction the delta BRET was calculated (3) ΔBRET=BRETRatiochimeric receptor−BRETRatioWT−MC4R
# [4] = target: MC4R/CB1R chimeric receptor Chim 5 (substitution of ICL2) (UniProt P32245); experiment: FRET or BRET; NanoBRET in living HEK293 cells co-transfected with a NanoLuc fusion (donor; written as binder) and a HaloTag fusion (acceptor, ligand 618; written as target), NL/HT DNA ratio 1:5; BRET ratio in mBU after subtraction of the no-acceptor control; delta BRET = chimera minus MC4R-WT homodimer
# MC4R-H158R = target: T1, MC4R-H158R (Homo sapiens, UniProt P32245, H158R); experiment: NFAT luciferase reporter gene assay (PLC activation, Gq/11 signaling), H158R; format: cell-based
# T1 construct: expressed in transfected cells; host or cells: HEK293
# MC4R-WT = MC4R-WT (Homo sapiens, UniProt P32245); experiment: NFAT luciferase reporter gene assay (PLC activation, Gq/11 signaling), MC4R-WT; details: MC4R-WT + PTX (50 ng/mL, 18 h before stimulation), HEK293; mean ± SEM, two to nine experiments
# Chain of MC4R-WT (P32245 whole entry): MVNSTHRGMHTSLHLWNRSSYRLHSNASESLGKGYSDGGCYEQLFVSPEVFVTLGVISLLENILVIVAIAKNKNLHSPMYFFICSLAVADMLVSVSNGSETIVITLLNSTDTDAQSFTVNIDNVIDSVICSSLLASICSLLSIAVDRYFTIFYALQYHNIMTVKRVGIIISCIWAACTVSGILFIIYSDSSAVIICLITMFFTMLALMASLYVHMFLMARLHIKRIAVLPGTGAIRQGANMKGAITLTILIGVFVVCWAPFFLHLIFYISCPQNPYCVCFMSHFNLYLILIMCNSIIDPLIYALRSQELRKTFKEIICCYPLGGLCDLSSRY
# Description: Cells were maintained in minimal essential medium (MEM, Gibco, Waltham, MA, USA) supplemented with 5% fetal bovine serum (FBS, Gibco, Waltham, MA, USA) and NEAA incubated at 37 °C in humidified air containing 5% CO2. […] For the NFAT luciferase-based reporter gene assay, 1.5 × 10^4 cells per well were seeded in poly-L-lysine-coated (Gibco, Waltham, MA, USA) 96-well translucent plates (Falcon, Kaiserslautern, Germany) and incubated for 24 h.
# For reporter gene assays, HEK293 cells were transfected 24 h after seeding with 45 ng plasmid DNA and 0.45 µL Metafectene (Biontex, Munich, Germany), according to the manufacturer’s protocol. […]
# In order to determine phospholipase C (PLC) activation, luciferase-based reporter gene assays were conducted. […] Measurements were conducted by injecting 40 µL firefly luciferase substrate (Promega, Mannheim, Germany), and luminescence was determined with a plate reader (Mithras LB940). Signaling bias was analyzed using the formula described by Kenakin [27]:(4) Δlog(Emax/EC50)=log(Emax, A/EC50,A)−log(Emax, B/EC50, B) with A referring to the respective chimeric receptor and B being the reference (MC4R-WT). Emax was determined from concentration–response curves and depicts the maximal response (efficacy); EC50 describes the potency. Bias was further calculated, creating the antilog. […]
# T1 sequence (P32245 whole entry H158R): as the sequence (P32245 whole entry) above, with H158R counted along it
molecule,measurement,setting,value
"CC(C)NCC(O)c1ccc(O)c(O)c1 (centres unmarked) [Isop, isoproterenol]",cAMP AUC,"HEK293 cells; cells transfected with Chim5, 1 µM isoproterenol, Assay 1",1461897
same,cAMP AUC,"HEK293 cells; cells transfected with Chim5, 1 µM isoproterenol, Assay 2",430167
same,cAMP AUC,"HEK293 cells; cells transfected with Chim5, 1 µM isoproterenol, Assay 3",324823
same,cAMP AUC,"HEK293 cells; cells transfected with Chim5, 1 µM isoproterenol, Assay 4",256187
same,cAMP AUC,"HEK293 cells; cells transfected with Chim6, 1 µM isoproterenol, Assay 1",1327867
same,cAMP AUC,"HEK293 cells; cells transfected with Chim6, 1 µM isoproterenol, Assay 2",379487
same,cAMP AUC,"HEK293 cells; cells transfected with Chim6, 1 µM isoproterenol, Assay 3",230900
same,cAMP AUC,"HEK293 cells; cells transfected with Chim6, 1 µM isoproterenol, Assay 4",310727
same,cAMP AUC,"HEK293 cells; cells transfected with Chim7, 1 µM isoproterenol, Assay 1",786920
same,cAMP AUC,"HEK293 cells; cells transfected with Chim7, 1 µM isoproterenol, Assay 2",473207
same,cAMP AUC,"HEK293 cells; cells transfected with Chim7, 1 µM isoproterenol, Assay 3",236040
same,cAMP AUC,"HEK293 cells; cells transfected with Chim7, 1 µM isoproterenol, Assay 4",192750
same,cAMP AUC,"HEK293 cells; cells transfected with WT, 1 µM isoproterenol, Assay 1",803127
same,cAMP AUC,"HEK293 cells; cells transfected with WT, 1 µM isoproterenol, Assay 2",589360
same,cAMP AUC,"HEK293 cells; cells transfected with WT, 1 µM isoproterenol, Assay 3",380950
same,cAMP AUC,"HEK293 cells; cells transfected with WT, 1 µM isoproterenol, Assay 4",376050
"4-Norleucine, 7-D-phenylalanine-alpha-melanocyte-stimulating hormone [NDP-alpha-MSH]",stimulated cAMP levels of chimeric receptors compared to MC4R-WT,[1],higher
MC4R-WT: wild-type melanocortin 4 receptor,Bmax,"[2]; HEK293, run 20210820",129.2
same,Bmax,"[2]; HEK293, run 20210901",118.3
same,Bmax,"[2]; HEK293, run 20210903",124.8
same,Bmax,"[2]; HEK293, run 20210929",127.1
same,Bmax,"[2]; HEK293, run 20211101",143.5
same,Bmax,"[2]; HEK293, run 20211107",109
same,Bmax,"[2]; HEK293, run 20211130",120.4
same,Bmax,"[2]; HEK293, run 20211202",130.7
same,Bmax,"[2]; HEK293, run 20211217",122.3
same,specificity of homodimer interaction,[2],specific interaction
same,Relative Dimerization Compared to WT,[3],0
MC4R/CB1R chimeric receptor Chim 5 (substitution of ICL2) (from UniProt P32245 1-332),Relative Dimerization Compared to WT (delta BRET),[4],-41.8
H158R: MC4R gain-of-function mutation located in ICL2 [Chim H158R],Bmax,"[2]; HEK293, run 20211107",109.9
same,Bmax,"[2]; HEK293, run 20211130",119.8
same,Bmax,"[2]; HEK293, run 20211202",137.4
same,specificity of homodimer interaction,[2],shows specific homodimer formation; also recorded: specific interaction
same,Relative Dimerization Compared to WT,[3],−28.94
same,homodimerization compared to MC4R-WT,[3],significantly impaired dimerization capacities
same,"nanoBRET rations, mean",[3],-28.94
MC4R-WT+MC4R-WT,"nanoBRET rations, mean",[3],0.000667
CC(=O)N[C@@H](CCCNC(=N)N)C(=O)N[C@H]1CSSC[C@@H](C(N)=O)NC(=O)[C@H](Cc2c[nH]c3ccccc23)NC(=O)[C@H](CCCNC(=N)N)NC(=O)[C@@H](Cc2ccccc2)NC(=O)[C@H](Cc2c[nH]cn2)NC(=O)[C@@H](C)NC1=O [Setmelanotide],Emax at 1 µM,"MC4R-H158R; HEK293, H158R, 6 h at 37 °C, mean ± SEM, n = 4",135.93 ± 17.16 Fold over MC4R-WT Stimulated 1 µM
same,Emax,MC4R-H158R; bias Setmelanotide calculation,135.93%
same,Emax at 1 µM,MC4R-WT,70.26 ± 9.13 Fold over MC4R-WT Stimulated 1 µM
B1,homodimerization compared to MC4R-WT,[3],decreased
